In PMC11224403, “Des-acyl ghrelin reduces alcohol intake and alcohol-induced reward in rodents” (Translational Psychiatry, 2024):

Key:
µ-opioid receptor = type: cell-based, human; settings: 50 µM DAG in results (8.3 µM in methods); luminescence, triplicates
cFOS in NAc and VTA = experiment: cFOS-positive cells in NAc and VTA; type: in vivo, male rats; settings: acute DAG, 90 min
Protocol: We therefore explore if DAG influenced the activity of neurons (cFOS) in NAc and VTA. Naïve male rats were treated acutely with vehicle (n = 3) or DAG (n = 3) and were 90 min later perfused. Brains were collected, and stored in 4% paraformaldehyde overnight, and in 25% sucrose until sectioning. Brains were sectioned coronally in 40-μm sections using a microtome. Brain slices of NAc (AP +1.8 mm) and VTA (AP −5.2 mm) were stained for cFOS-DAB, as described elsewhere, visualized by a Nikon light microscope (Nikon Eclipse 90i, Tokyo, Japan). Pictures were captured with a Nikon DS-Fi1 camera (Nikon, Tokyo, Japan). Cell bodies positive for cFOS immunoreactivity (dark brown) were quantified using ImageJ-FIJI (National Institutes of Health, Bethesda, MD), and counted manually by a blinded experimenter.
The obtained data are normally distributed and with equal variance. The data from drinking experiments were analyzed by unpaired t-test or repeated two-way ANOVA. A two-tailed unpaired t-test analyzed the ELISA, ex vivo HPLC-EC, and cFOS data. […] A one-way ANOVA with Bonferroni post hoc tests and unpaired t-test analyzed the locomotor activity and CPP data, respectively. The in vivo microdialysis experiments were evaluated by a repeated two-way ANOVA followed by the Bonferroni post hoc test. […] Data were analyzed with GraphPad Prism version 10.0.2 (GraphPad Software, La Jolla, CA, USA).

male and female rats = experiment: Intermittent-access alcohol drinking, acute DAG injection; type: in vivo, Rcc Han Wistar rats; settings: for intake of alcohol, water, total fluid, food, alcohol preference, body weight: male and female rats
Text: Male and female Rcc Han Wistar rats (8–12 weeks old at arrival; Envigo, Horst, Netherlands) were used for the alcohol drinking and locomotor activity experiments as they drink alcohol to intoxicating levels. For in vivo microdialysis studies male Wistar rats (Charles River, Calco, Italy) were used as they display robust dopamine levels in NAc shell after alcohol injection. […] All rodents were allowed to habituate to the animal facility at least one week before they entered an experiment. During housing (20 °C with 50% humidity) the rodents had free access to water and standard chow (Teklad Rodent Diet; Envigo, Madison, WI, USA). These experiments were approved by the Ethics Committee for Animal Experiments (ethical numbers: 1457/18, 3276/18, 1556/18, 3348/20; Gothenburg, Sweden) and followed the ARRIVE guidelines. The sample sizes of each experiment were based on previous experience in which statistical significance has been detected. The person who conducted the experiments, and analyzed the collected data was aware of the treatment allocation. Only preset exclusion criteria were used when analyzing the data obtained in attempts to exclude confounding factors in analyzing data. In the alcohol drinking experiments leaking bottles and low alcohol consumption (<3.0 g/kg for males; <3.5 g/kg for females) were preset exclusion criteria. The preset exclusion criterion in the ex vivo HPLC-EC, ELISA, and recombinant cell line experiments was contamination of the sample. Misplaced probes, technical difficulties, and damages to the surgery area were preset exclusion criteria for the in vivo microdialysis experiment. Intra-cage male aggression was the preset exclusion criterion for the locomotor activity and CPP experiments. To minimize tentative confounding factors, the order of treatments was stratified, with treatments being mixed for each animal cage and for each apparatus used as well as balancing the alcohol intake between future treatment groups. Although each experiment only was performed once, they were separated over different laboratory days with equal data obtained between sessions.
Alcohol (95%; Solveco AB, Stockholm, Sweden) was either diluted to a 20% solution using tap water (drinking experiment) or to a 15% (w/v) solution with 0.9% NaCl. Alcohol was in the behavioral and neurochemical tests injected (intraperitoneally, IP) 5 min before the test. A dose of 1.75 g/kg was used in male mice as it causes robust locomotor stimulation and induces a CPP [37–39], and 2 g/kg was used for rats as it elevates the dopamine levels in NAc shell. DAG (Tocrise Bioscience, Bristol, UK) was dissolved in 0.9% NaCl in doses (0.25–2 mg/kg) known to reduce food intake and DAG was injected IP).
Individually housed rats had intermittent access to an alcohol (20%) bottle and a water bottle, three 24-h sessions per week, and only water bottles the remaining days. A reversed light/dark cycle was used, and the bottles were changed when the lights went out. First, the rats consumed alcohol for 10 weeks (baseline drinking), where the bottles and food were weighed daily and the body weight weekly. During treatments, the bottles and food were weighed at 4- and/or 24-h and the body weight was measured daily. In the first drinking experiment, the potential of DAG to reduce alcohol consumption was tested and therefore, vehicle or DAG (1 mg/kg) was acutely injected into male (n = 12) or female (n = 12) rats. The second drinking experiment was conducted to establish the effects of lower DAG doses on alcohol intake. Therefore, separate male (n = 18) or female (n = 18) rats, were acutely injected with lower DAG doses (0.5 or 0.25 mg/kg) or vehicle. The third alcohol drinking experiment evaluated the ability of repeated DAG injections to lower alcohol drinking. Therefore, additional male (n = 24) and female (n = 24) rats were injected with either vehicle or DAG (1 mg/kg) at three alcohol-drinking sessions. […]

[1] = female rats, acute DAG 1.0 mg/kg IP, n = 5 vs vehicle n = 6, 4 h
[2] = male rats, acute DAG 1.0 mg/kg IP, n = 5 vs vehicle n = 6, 4 h
[3] = male rats, acute DAG 1.0 mg/kg IP, n = 5 vs vehicle n = 6, 24 h

des-acyl ghrelin (GSSFLSPEHQRVQQRKESKKPPAKLQPR; Ghrelin-28 non-acylated; UniProt Q9UBU3 24-51, looked up) [DAG, non-octanoylated form of ghrelin; purchased from Tocris (printed Tocrise Bioscience), dissolved in 0.9% NaCl]
activation of µ-opioid receptor (µ-opioid receptor): no activation
cFOS-positive cells, VTA (cFOS in NAc and VTA; male rats, data not shown): Neither did DAG treatment influence cFOS-positive cells in the VTA
number of cFOS-positive cells, NAc shell (cFOS in NAc and VTA; naïve male rats, n = 3 per group, vehicle 237 ± 13, t4 = 0.60, P = 0.6372): 219 ± 33
4-h alcohol intake (male and female rats; [1]): decreased the 4-h alcohol intake (t9 = 2.05; P = 0.0351)
preference for alcohol, 4-h (male and female rats; [1]): reduced it at the I 4-h (t9 = 2.16; P = 0.0294)
4-h food intake (male and female rats; female rats, acute DAG 1.0 mg/kg IP, n = 5 vs vehicle n = 6, 4 h (first statistic)): At neither time point, DAG affected the K, L food intake (t9 = 0.34; P = 0.7414
24-h alcohol intake (male and female rats; female rats, acute DAG 1.0 mg/kg IP, n = 5 vs vehicle n = 6, 24 h): did not alter the 24-h drinking (t9 = 0.22; P = 0.8331)
24-h food intake (male and female rats; female rats, acute DAG 1.0 mg/kg IP, n = 5 vs vehicle n = 6, 24 h (second statistic)): At neither time point, DAG affected the K, L food intake (t9 = 0.34; P = 0.7414 and t9 = 1.12; P = 0.2909, respectively)
intake of alcohol, water, total fluid, food, alcohol preference, body weight (male and female rats; acute DAG 0.25 mg/kg IP, n = 6): did not alter the intake of alcohol, water, total fluid, food intake alcohol preference or body weight in male or female rats
intake of alcohol, water, total fluid, food, alcohol preference, body weight (male and female rats; acute DAG 0.5 mg/kg IP, n = 6 (males n = 5)): did not alter the intake of alcohol, water, total fluid, food intake alcohol preference or body weight in male or female rats
4-h alcohol intake (male and female rats; [2]): did not alter the A 4-h alcohol intake (t9 = 0.36; P = 0.7264)
4-h food intake (male and female rats; [2]): did not affect the E 4-h food intake (t9 = 1.51; P = 0.1657)
preference for alcohol, 4-h (male and female rats; [2]): did not alter the C preference for alcohol at the 4-h time point (t9 = 1.84; P = 0.0983)
24-h alcohol intake (male and female rats; [3]): reduced the alcohol intake at the 24-h time point (t9 = 2.35; P = 0.0432)
24-h food intake (male and female rats; [3]): increased the 24-h feeding (t9 = 2.64; P = 0.0271)
preference for alcohol, 24-h (male and female rats; [3]): decreased it at 24 h (t9 = 3.00; P = 0.0149)
